# Literature values in US20040096950A1, “Crystal structure of beta site APP cleaving enzyme (BACE) and methods of use thereof” (priority 2002, published 2004).
# Where a SMILES comes first, the peptide text is derived from it. [ ]: non-standard residue; d: D form. The star is where a group is joined. Sta = CC(C)C[C@H](N)[C@@H](O)CC(=O)O; Isovaleryl = CC(C)CC(=O)*
# Biological target: BACE (Homo sapiens, UniProt P56817)
# Settings: background statement, no concentration given
# BACE, sequence (P56817 46-501): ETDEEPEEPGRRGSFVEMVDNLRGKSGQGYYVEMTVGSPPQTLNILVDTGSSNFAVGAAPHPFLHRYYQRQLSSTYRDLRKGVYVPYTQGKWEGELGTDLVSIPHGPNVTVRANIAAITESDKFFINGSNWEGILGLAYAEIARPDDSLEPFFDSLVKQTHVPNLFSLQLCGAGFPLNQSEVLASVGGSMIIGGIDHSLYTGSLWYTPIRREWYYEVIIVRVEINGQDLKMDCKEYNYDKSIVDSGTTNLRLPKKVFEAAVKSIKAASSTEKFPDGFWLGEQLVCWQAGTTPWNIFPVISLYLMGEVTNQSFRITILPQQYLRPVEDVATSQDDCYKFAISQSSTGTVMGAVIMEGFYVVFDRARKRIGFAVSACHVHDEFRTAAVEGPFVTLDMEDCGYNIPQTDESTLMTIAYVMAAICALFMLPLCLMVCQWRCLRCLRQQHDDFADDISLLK
smiles,measurement,value
CC(C)CC(=O)N[C@H](C(=O)N[C@H](C(=O)N[C@@H](CC(C)C)[C@@H](O)CC(=O)N[C@@H](C)C(=O)N[C@@H](CC(C)C)[C@@H](O)CC(=O)O)C(C)C)C(C)C [pepstatin] (Isovaleryl-VV[Sta]A[Sta]-OH),inhibition of BACE,inhibited weakly
